According to patent US8834579B2, “Dye composition for hair dyeing and method for producing the same” (Hodogaya Chemical Co., Ltd., priority 2012, dated 2014):
Where two headings read alike, the source gives them in different places.

How the values were obtained:
[1] = tested on: Salmonella typhimurium TA98 strain; assay: Ames test (reverse mutation test), TA98 strain; type: cell-based
From the text: (§1) The Ames test is a test system for detecting a phenomenon that a histidine-requiring strain, which cannot grow without a specific amino acid (for example, histidine), is returned to a histidine-nonrequiring strain by a gene mutation due to a mutational substance. The Ames test is also called a reverse mutation test because a strain regains its original nature by a gene mutation. In the case of a metabolic activation test, a test substance, a test strain, and an enzyme for activating metabolism of drugs (S-9Mix) are mixed, and the mixture is cultured for 48 hours at 37° C. using an agar medium after preincubation for 20 minutes at 37° C. The number of induced revertant colonies is counted, and it is determined to be positive in the case where the ratio (MR value) of the number of the induced revertant colonies to the number of revertant colonies appearing in a negative control is 2 or more (refer to, for example, “Bacterial Reverse Mutation Test.” OECD GUIDELINE FOR TESTING OF CHEMICALS, no. 471, Adopted: 21, Jul. 1997).
(§2) The metabolic activation test is a test carried out by adding an enzyme for activating metabolism of drugs (that is, S-9Mix) which is obtained from a liver of a rat or the like in order to bring a metabolic system of drugs for microbes close to that of mammals.
(§3) With respect to Basic Brown 16 before and after purification, the Ames test was carried out using Salmonella typhimurium TA98 strain and Salmonella typhimurium TA1537 strain with and without an enzyme for activating metabolism of drugs (S-9Mix) in each strain.
(§4) The Ames test was carried out on the same condition also with respect to the component indicating positive in the Ames test and represented by the structural formula (III) among impurities contained in Basic Brown 16.

[2] = tested on: Salmonella typhimurium TA1537 strain; assay: Ames test (reverse mutation test), TA1537 strain; type: cell-based
From the text: as §1, §2, §3, §4

[3] = tested on: Salmonella typhimurium TA1537 strain; conditions: TA1537 (TA1537 strain and/or TA98 strain); SCCP Opinion on Basic Brown 16, 2008; cited from earlier work
[4] = strain not stated; SCCP Opinion on Basic Brown 16, 2008; cited from earlier work
[5] = tested on: Salmonella typhimurium TA98 strain; conditions: TA98 (TA1537 strain and/or TA98 strain); SCCP Opinion on Basic Brown 16, 2008; cited from earlier work

CN(C)c1ccc2ccc(O)c(N=Nc3ccc(N)cc3)c2c1 [Component of structural formula (III)]
Ames test result ([1]; TA98): positive (it is determined to be positive in the case where the ratio (MR value) of the number of the induced revertant colonies to the number of revertant colonies appearing in a negative control is 2 or more) | MR value (ratio of induced revertant colonies to negative control) ([1]; TA98, +S9 (with S-9Mix)): 53.0 | MR value (ratio of induced revertant colonies to negative control) ([1]; TA98, −S9 (without S-9Mix)): 0.9 | Ames test result ([2]; TA1537): positive (it is determined to be positive in the case where the ratio (MR value) of the number of the induced revertant colonies to the number of revertant colonies appearing in a negative control is 2 or more) | MR value (ratio of induced revertant colonies to negative control) ([2]; TA1537, +S9 (with S-9Mix)): 10.5 | MR value (ratio of induced revertant colonies to negative control) ([2]; TA1537, −S9 (without S-9Mix)): 1.2

C[N+](C)(C)c1ccc2ccc(O)c(N=Nc3ccc(N)cc3)c2c1.[Cl-] [Basic Brown 16]
Ames test result [3]: positive | Ames test result [4]: positive | Ames test result [5]: positive
